Active and inactive are the calls of the source. The calls are words filed in the database; no cut-off is given here.
Columns and labels:
A2780S [1] = test: Antitumor activity against human A2780S cells xenografted in mouse assessed as tumor growth inhibition at 40 mg/kg, iv; type: functional; details: read-out: TGI
[2] = Clearance in rat at 5 mg/kg, iv; type: ADME, organism-based; details: in vivo
A2780S [3] = test: Induction of apoptosis in human A2780S cells assessed as late apoptotic cells level at 100 nM incubated for 48 hrs by Annexin V-FITC/PI staining based flow cytometry (reference value: 5.2%); type: functional
[4] = Cmax in rat plasma at 5 mg/kg, iv; type: ADME, organism-based; design: route intravenous, dose 5 mg/kg
[5] = Clearance in rat at 5 mg/kg, po; type: ADME, organism-based; details: in vivo
A2780S [6] = test: Antitumor activity against human A2780S cells xenografted in mouse assessed as tumor growth inhibition at 20 mg/kg, iv measured on three times in week; type: functional; details: read-out: TGI
HeLa [7] = test: Antiproliferative activity against human HeLa cells assessed as reduction in cell viability measured after 24 hrs by MTT assay; type: functional, cell-based
HeLa [8] = test: Induction of Alpha/beta tubulin degradation in human HeLa cells pretreated with colchicine at 10 uM for 1 hrs followed by compound addition measured after 16 hrs by Western blot analysis; type: cell-based
A2780/Taxol [9] = test: Cytotoxicity in human A2780T assessed as inhibition in cell growth measured after 24 hrs by MTT assay; type: functional, cell-based
HeLa [10] = test: Induction of Beta tubulin degradation in human HeLa cells pretreated with MG132 at 10 uM for 1 hrs followed by compound addition measured after 16 hrs by Western blot analysis; type: cell-based
[11] = Cmax in rat at 5 mg/kg, po; type: ADME, organism-based; design: route oral, dose 5 mg/kg; details: in vivo
A549/TR = test: Cytotoxicity in human A549T assessed as inhibition in cell growth measured after 24 hrs by MTT assay; type: functional, cell-based
HUVEC [12] = test: Antimigratory activity against human HUVEC cells assessed as reduction in tumor cell migration at upto 5 nM incubated for 24 hrs by wound healing assay relative to control; type: functional; design: scale not given: the % may be the effect or the level left; details: dose nM <=5
HUVEC [13] = test: Antimigratory activity against human HUVEC cells assessed as reduction in metastasis at upto 5 nM incubated for 48 hrs by wound healing assay; type: functional, cell-based; details: dose nM <=5, time 48.0 hrs
[14] = Drug resistance index, ratio of IC50 for human MCF7 cancer cell to ratio of IC50 for human NCI-ADR-RES cancer cell; type: functional
MCF7 [15] = test: Cytotoxicity in human MCF7 assessed as inhibition in cell growth measured after 24 hrs by MTT assay; type: functional, cell-based; details: MCF7, 24 h
[16] = Volume of distribution at steady state in rat at 5 mg/kg, po; type: ADME, organism-based; details: in vivo
K562 = test: Induction of Beta tubulin degradation in human K562 cells at upto 10 uM for 16 hrs by immunoblot analysis; type: cell-based; details: dose microM <=10, time 16.0 hrs
A2780S [17] = test: Induction of cell cycle arrest in human A2780S cells assessed as accumulation at G2/M phase at 100 nM measured after 48 hrs by flow cytometry analysis relative to control; type: functional
[18] = Volume of distribution at steady state in rat at 5 mg/kg, iv; type: ADME, organism-based; details: in vivo, read-out: Vdss
A2780S [19] = test: Induction of apoptosis in PTX sensitive human A2780S cells at 100 to 300 nM incubated for 48 hrs by Annexin V-FITC/PI staining based flow cytometry method; type: functional, cell-based; details: dose 100-300 nM
HeLa [20] = test: Induction of Beta tubulin degradation in human HeLa cells at upto 10 uM for 16 hrs by immunoblot analysis; type: cell-based; details: dose microM <=10, time 16.0 hrs
[21] = Drug resistance index, ratio of IC50 for human A2780S cancer cell to ratio of IC50 for human A2780T cancer cell; type: functional
HUVEC [22] = test: Antimigratory activity against human HUVEC cells assessed as reduction in cell migration at upto 10 nM incubated for 48 hrs by wound healing assay; type: functional; design: scale not given: the % may be the effect or the level left; details: dose nM <=10
[23] = Toxicity in mouse xenografted with human A2780S cells assessed as body weight loss at 40 mg/kg, iv; type: organism-based; details: in vivo
A2780S [24] = test: Antiproliferative activity against human A2780S cells assessed as reduction in cell viability measured after 24 hrs by MTT assay; type: functional, cell-based
Raji = test: Antiproliferative activity against human Raji cells assessed as reduction in cell viability measured after 24 hrs by MTT assay; type: functional, cell-based
[25] = Half life in rat at 5 mg/kg, iv; type: ADME, organism-based; details: in vivo
A2780/Taxol [26] = test: Induction of apoptosis in PTX resistant human A2780T cells at 100 to 300 nM incubated for 48 hrs by Annexin V-FITC/PI staining based flow cytometry method; type: functional, cell-based; details: dose 100-300 nM
A2780S [27] = test: Antitumor activity against mouse xenografted with human A2780S cell assessed as tumor growth inhibition at 40 mg/kg, po; type: functional; details: read-out: TGI
A549 = test: Cytotoxicity in human A549 assessed as inhibition in cell growth measured after 24 hrs by MTT assay; type: functional, cell-based; details: A549, 24 h
[28] = Drug resistance index, ratio of IC50 for human A549 cancer cell to ratio of IC50 for human A549T cancer cell; type: functional
A2780/Taxol [29] = test: Induction of cell cycle arrest in human A2780T cells assessed as accumulation at G2/M phase at 300 nM measured after 48 hrs by flow cytometry analysis relative to control; type: functional
HUVEC [30] = test: Antimigratory activity against human HUVEC cells assessed as reduction in cell migration at upto 5 nM incubated for 48 hrs by wound healing assay relative to control; type: functional; design: scale not given: the % may be the effect or the level left; details: dose nM <=5
A2780S [31] = test: Antitumor activity against human A2780S cells xenografted in mouse assessed as tumor growth inhibition at 10 mg/kg, iv measured on three times in week; type: functional; details: read-out: TGI
NCI-H460 = test: Antiproliferative activity against human NCI-H460 cells assessed as reduction in cell viability measured after 24 hrs by MTT assay; type: functional, cell-based; details: NCI-H460, 24 h
A2780S [32] = test: Cytotoxicity in human A2780S assessed as inhibition in cell growth measured after 24 hrs by MTT assay; type: functional, cell-based
MCF7 [33] = test: Antiproliferative activity against human MCF7 cells assessed as reduction in cell viability measured after 24 hrs by MTT assay; type: functional, cell-based; details: MCF7, 24 h
[34] = Toxicity in mouse xenografted with human A2780S cells assessed as body weight loss at 40 mg/kg, po; type: organism-based; details: in vivo
[35] = Half life in rat at 5 mg/kg, po; type: ADME, organism-based; details: in vivo
NCI/ADR-RES = test: Cytotoxicity in human NCI-ADR-RES assessed as inhibition in cell growth measured after 24 hrs by MTT assay; type: functional, cell-based
A2780S [36] = test: Induction of apoptosis in human A2780S cells assessed as late apoptotic cells level at 300 nM incubated for 48 hrs by Annexin V-FITC/PI staining based flow cytometry (reference value: 5.2%); type: functional
[37] = Oral bioavailability in rat at 5 mg/kg; type: ADME, organism-based; details: in vivo
HeLa [38] = test: Induction of Alpha/beta tubulin degradation in human HeLa cells pretreated with colchicine at 10 uM for 1 hrs by Western blot analysis; type: cell-based
Tubulin (Homo sapiens) = Tubulin (Homo sapiens) (UniProt P68371+Q9H4B7+P0DPH7+P68366+Q13509+Q71U36+P04350+Q3ZCM7+P07437+P68363+Q9BQE3+Q6PEY2+Q13885+Q9BVA1+Q9BUF5); test: Inhibition of tubulin polymerization in human A2780S cells assessed as microtubule network polymerization at 10 to 1000 nM after 24 hrs by immunofluorescence analysis; type: cell-based; details: dose 10-1000 nM
HeLa [39] = test: Induction of Alpha/beta tubulin degradation in human HeLa cells pretreated with PYR-41 at 10 uM for 1 hrs followed by compound addition measured after 16 hrs by Western blot analysis; type: cell-based
A2780S [40] = test: Induction of cell cycle arrest in human A2780S cells assessed as accumulation at G2/M phase at 300 nM measured after 48 hrs by flow cytometry analysis relative to control; type: functional
HUVEC [41] = test: Antimigratory activity against human HUVEC cells assessed as reduction in metastasis at upto 5 nM incubated for 24 hrs by wound healing assay; type: functional, cell-based; details: dose nM <=5, time 24.0 hrs
A2780/Taxol [42] = test: Induction of cell cycle arrest in human A2780T cells assessed as accumulation at G2/M phase at 100 nM measured after 48 hrs by flow cytometry analysis relative to control; type: functional
A2780S [43] = test: Induction of apoptosis in human A2780S cells assessed as late apoptotic cells level at 30 nM incubated for 48 hrs by Annexin V-FITC/PI staining based flow cytometry (reference value: 5.2%); type: functional
HUVEC [44] = test: Antimigratory activity against human HUVEC cells assessed as reduction in cell migration at upto 10 nM incubated for 24 hrs by wound healing assay; type: functional; design: scale not given: the % may be the effect or the level left; details: dose nM <=10
HeLa [45] = test: Induction of Alpha/beta tubulin degradation in human HeLa cells measured after 16 hrs by immunoblot analysis; type: cell-based; details: dose 0-50 µM

Molecule `c1cc(CNc2cc3c(cn2)[nH]c2ccccc23)cc(Oc2ccc3c(c2)OCO3)c1` has an inhibition in vivo at 40 mg/kg (A2780S [1]) of 92.4%, a clearance [2] of 25.3 mL/min/kg and an Activity (A2780S [3]) of 25.2%. For the same molecule, the Cmax [4] was 189 ng/mL, the CL/F [5] was 84.3 mL/min/kg and the inhibition in vivo at 20 mg/kg (A2780S [6]) was 71.5%. The IC50 (HeLa [7]) was 5 nM, the Activity (HeLa [8]) was “Active” and the IC50 (A2780/Taxol [9]) was 13.1 nM. The Activity (HeLa [10]) was “Active”, the Cmax [11] was 2600 ng/mL and the IC50 (A549/TR) was 63.8 nM. The Activity (HUVEC [12]) was 76.21%, the Activity (HUVEC [13]) was “Active” and the “Ratio IC50” value [14] was 1.2. The IC50 (MCF7 [15]) was 11.3 nM, the Vdss [16] was 35.26 L/kg and the Activity (K562) was “Active”. For the same molecule, the Activity (A2780S [17]) was 55.1%, the Vd [18] was 8.08 L/kg and the Activity (A2780S [19]) was “Active”. The Activity (HeLa [20]) was “Active”, the “Ratio IC50” value [21] was 0.8 and the Activity (HUVEC [22]) was 28.47%. The Activity [23] was “Non-Toxic”, the IC50 (A2780S [24]) was 8 nM and the IC50 (Raji) was 13 nM. The half-life [25] was 3.57 h, the Activity (A2780/Taxol [26]) was “Active” and the inhibition in vivo at 40 mg/kg (A2780S [27]) was 34.9%. For the same molecule, the IC50 (A549) was 60.1 nM, the “Ratio IC50” value [28] was 1.1 and the Activity (A2780/Taxol [29]) was 72.89%. It also gave an Activity (HUVEC [30]) of 85.07%, an inhibition in vivo at 10 mg/kg (A2780S [31]) of 66.1% and an IC50 (NCI-H460) of 14 nM. The IC50 (A2780S [32]) was 16.4 nM, the IC50 (MCF7 [33]) was 9 nM and the Activity [34] was “Toxic”. The half-life [35] was 4.42 h, the IC50 (NCI/ADR-RES) was 13.5 nM and the Activity (A2780S [36]) was 30.6%. For the same molecule, the bioavailability [37] was 30.7%, the Activity (HeLa [38]) was “Active” and the Activity (Tubulin (Homo sapiens)) was “inactive”. The Activity (HeLa [39]) was “Active”, the Activity (A2780S [40]) was 79.54% and the Activity (HUVEC [41]) was “Active”. It also gave an Activity (A2780/Taxol [42]) of 72.18%, an Activity (A2780S [43]) of 3.7% and an Activity (HUVEC [44]) of 20.8%. For the same molecule, the Activity (HeLa [45]) was “Active”.

Molecule `c1csc(CNc2cc3c(cn2)[nH]c2ccccc23)c1` has an IC50 (HeLa [7]) of 412 nM, an IC50 (A2780S [24]) of over 500 nM and an IC50 (Raji) of 257 nM. The IC50 (NCI-H460) was over 500 nM and the IC50 (MCF7 [33]) was 424 nM.

Molecule `c1ccc2c(c1)[nH]c1cnc(NCc3ccsc3)cc12` has an IC50 (HeLa [7]) of 93 nM, an IC50 (A2780S [24]) of 63 nM and an IC50 (Raji) of 43 nM. For the same molecule, the IC50 (NCI-H460) was 87 nM and the IC50 (MCF7 [33]) was 73 nM.
